Patent US4068070A, “α-Cyanoamine compounds and a process for producing the same” (Fuji Chemical Industry Co., Ltd., priority 1974, dated 1978)
Structures can show the parent of a compound that is named as a salt.

Experiments:
[1] = tested on: coronary sinus oxygen tension; assay: Effects on coronary sinus oxygen tension; format: in vivo, mongrel adult dogs
How it was run: (§1)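 Intravenous brachial dosing of test compound or active placebo in anesthetized, thoracotomized dogs weighing about 10 kg. Coronary sinus outflow was measured with an electromagnetic flowmeter and oxygen tension with a pO2 electrode after Morawitz cannulation of the sinus.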

heart rate = assay: Effects on heart rate; format: in vivo, mongrel adult dogs
How it was run: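 Adult mongrel dogs of both sexes were anesthetized with pentobarbital and thoracotomized. Test agents, suspended or dissolved in 0.2% CMC, pH 6 HCl solution or saline, were injected intravenously into the brachial vein. Hemodynamic and coronary sinus parameters were then recorded.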

[2] = tested on: arterial mean blood pressure; assay: Effects on arterial mean blood pressure; format: in vivo, mongrel adult dogs
How it was run: (§2)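 In pentobarbital-anesthetized open-chest mongrels, aortic root flow and carotid-cannula blood pressure are monitored after i.v. administration.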

coronary sinus out flow = assay: Effects on coronary sinus out flow; format: in vivo, mongrel adult dogs
How it was run: as §1

coronary blood flow = details: marketed antianginal drug; cited from earlier work
aortic blood flow = assay: Effects on aortic blood flow; format: in vivo, mongrel adult dogs
How it was run: as §2

COc1ccc(CN2CCNCC2)c(OC)c1OC [Vastarel F, 2,3,4-trimethoxybenzylpiperazine dihydrochloride, reference compound]
Changes(%) of basal values, coronary sinus oxygen tension ([1]; 0.2 mg/kg i.v., 1 min): +1.0% | Changes(%) of basal values, coronary sinus oxygen tension ([1]; 0.2 mg/kg i.v., 5 min): 0% | Changes(%) of basal values, coronary sinus oxygen tension ([1]; 0.2 mg/kg i.v., 10 min): 0% | Changes(%) of basal values, coronary sinus oxygen tension ([1]; 0.2 mg/kg i.v., 20 min): 0% | Changes(%) of basal values, coronary sinus oxygen tension ([1]; 0.2 mg/kg i.v., 30 min): 0% | Changes(%) of basal values, coronary sinus oxygen tension ([1]; 0.2 mg/kg i.v., imm.): +3.0% | Changes(%) of basal values, coronary sinus oxygen tension ([1]; 0.6 mg/kg i.v., 1 min): +5.5% | Changes(%) of basal values, coronary sinus oxygen tension ([1]; 0.6 mg/kg i.v., 5 min): +1.0% | Changes(%) of basal values, coronary sinus oxygen tension ([1]; 0.6 mg/kg i.v., 10 min): 0% | Changes(%) of basal values, coronary sinus oxygen tension ([1]; 0.6 mg/kg i.v., 20 min): 0% | Changes(%) of basal values, coronary sinus oxygen tension ([1]; 0.6 mg/kg i.v., 30 min): 0% | Changes(%) of basal values, coronary sinus oxygen tension ([1]; 0.6 mg/kg i.v., imm.): +9.0% | Changes(%) of basal values, coronary sinus oxygen tension ([1]; 2.0 mg/kg i.v., 1 min): +1.5% | Changes(%) of basal values, coronary sinus oxygen tension ([1]; 2.0 mg/kg i.v., 5 min): +2.0% | Changes(%) of basal values, coronary sinus oxygen tension ([1]; 2.0 mg/kg i.v., 10 min): +5.0% | Changes(%) of basal values, coronary sinus oxygen tension ([1]; 2.0 mg/kg i.v., 20 min): +3.0% | Changes(%) of basal values, coronary sinus oxygen tension ([1]; 2.0 mg/kg i.v., 30 min): 0% | Changes(%) of basal values, coronary sinus oxygen tension ([1]; 2.0 mg/kg i.v., imm.): +3.0% | minimum increase in oxygen tension ([1]; until after 5-20 minutes, i.v.): 3-5% | Changes(%) of basal values, heart rate (heart rate; 0.2 mg/kg i.v., 1 min): 0% | Changes(%) of basal values, heart rate (heart rate; 0.2 mg/kg i.v., 5 min): -1.5% | Changes(%) of basal values, heart rate (heart rate; 0.2 mg/kg i.v., 10 min): -1.0% | Changes(%) of basal values, heart rate (heart rate; 0.2 mg/kg i.v., 20 min): 0% | Changes(%) of basal values, heart rate (heart rate; 0.2 mg/kg i.v., 30 min): 0% | Changes(%) of basal values, heart rate (heart rate; 0.2 mg/kg i.v., imm.): +1.5% | Changes(%) of basal values, heart rate (heart rate; 0.6 mg/kg i.v., 1 min): +0.5% | Changes(%) of basal values, heart rate (heart rate; 0.6 mg/kg i.v., 5 min): -0.5% | Changes(%) of basal values, heart rate (heart rate; 0.6 mg/kg i.v., 10 min): 0% | Changes(%) of basal values, heart rate (heart rate; 0.6 mg/kg i.v., 20 min): -1.0% | Changes(%) of basal values, heart rate (heart rate; 0.6 mg/kg i.v., 30 min): 0% | Changes(%) of basal values, heart rate (heart rate; 0.6 mg/kg i.v., imm.): +1.5% | Changes(%) of basal values, heart rate (heart rate; 2.0 mg/kg i.v., 1 min): -2.0% | Changes(%) of basal values, heart rate (heart rate; 2.0 mg/kg i.v., 5 min): -2.0% | Changes(%) of basal values, heart rate (heart rate; 2.0 mg/kg i.v., 10 min): -1.5% | Changes(%) of basal values, heart rate (heart rate; 2.0 mg/kg i.v., 20 min): -1.5% | Changes(%) of basal values, heart rate (heart rate; 2.0 mg/kg i.v., 30 min): -1.5% | Changes(%) of basal values, heart rate (heart rate; 2.0 mg/kg i.v., imm.): +5.5% | Changes (%) of basal values, arterial mean blood pressure ([2]; 0.2 mg/kg i.v., 1 min): -1.0% | Changes (%) of basal values, arterial mean blood pressure ([2]; 0.2 mg/kg i.v., 5 min): -2.0% | Changes (%) of basal values, arterial mean blood pressure ([2]; 0.2 mg/kg i.v., 10 min): -1.5% | Changes (%) of basal values, arterial mean blood pressure ([2]; 0.2 mg/kg i.v., 20 min): 0% | Changes (%) of basal values, arterial mean blood pressure ([2]; 0.2 mg/kg i.v., 30 min): 0% | Changes (%) of basal values, arterial mean blood pressure ([2]; 0.2 mg/kg i.v., imm.): -3.0% | Changes (%) of basal values, arterial mean blood pressure ([2]; 0.6 mg/kg i.v., 1 min): -2.0% | Changes (%) of basal values, arterial mean blood pressure ([2]; 0.6 mg/kg i.v., 5 min): -1.5% | Changes (%) of basal values, arterial mean blood pressure ([2]; 0.6 mg/kg i.v., 10 min): -1.0% | Changes (%) of basal values, arterial mean blood pressure ([2]; 0.6 mg/kg i.v., 20 min): 0% | Changes (%) of basal values, arterial mean blood pressure ([2]; 0.6 mg/kg i.v., 30 min): 0% | Changes (%) of basal values, arterial mean blood pressure ([2]; 0.6 mg/kg i.v., imm.): -6.0% | Changes (%) of basal values, arterial mean blood pressure ([2]; 2.0 mg/kg i.v., 1 min): -35.0% | Changes (%) of basal values, arterial mean blood pressure ([2]; 2.0 mg/kg i.v., 5 min): -2.0% | Changes (%) of basal values, arterial mean blood pressure ([2]; 2.0 mg/kg i.v., 10 min): -1.0% | Changes (%) of basal values, arterial mean blood pressure ([2]; 2.0 mg/kg i.v., 20 min): -1.0% | Changes (%) of basal values, arterial mean blood pressure ([2]; 2.0 mg/kg i.v., 30 min): -2.0% | Changes (%) of basal values, arterial mean blood pressure ([2]; 2.0 mg/kg i.v., imm.): -55.0% | Changes(%) of basal values, coronary sinus out flow (coronary sinus out flow; 0.2 mg/kg i.v., 1 min): +1.0% | Changes(%) of basal values, coronary sinus out flow (coronary sinus out flow; 0.2 mg/kg i.v., 5 min): 0% | Changes(%) of basal values, coronary sinus out flow (coronary sinus out flow; 0.2 mg/kg i.v., 10 min): 0% | Changes(%) of basal values, coronary sinus out flow (coronary sinus out flow; 0.2 mg/kg i.v., 20 min): 0% | Changes(%) of basal values, coronary sinus out flow (coronary sinus out flow; 0.2 mg/kg i.v., 30 min): 0% | Changes(%) of basal values, coronary sinus out flow (coronary sinus out flow; 0.2 mg/kg i.v., 40 min): 0% | Changes(%) of basal values, coronary sinus out flow (coronary sinus out flow; 0.2 mg/kg i.v., imm.): +4.0% | Changes(%) of basal values, coronary sinus out flow (coronary sinus out flow; 0.6 mg/kg i.v., 1 min): +2.5% | Changes(%) of basal values, coronary sinus out flow (coronary sinus out flow; 0.6 mg/kg i.v., 5 min): +0.5% | Changes(%) of basal values, coronary sinus out flow (coronary sinus out flow; 0.6 mg/kg i.v., 10 min): 0% | Changes(%) of basal values, coronary sinus out flow (coronary sinus out flow; 0.6 mg/kg i.v., 20 min): 0% | Changes(%) of basal values, coronary sinus out flow (coronary sinus out flow; 0.6 mg/kg i.v., 30 min): 0% | Changes(%) of basal values, coronary sinus out flow (coronary sinus out flow; 0.6 mg/kg i.v., 40 min): 0% | Changes(%) of basal values, coronary sinus out flow (coronary sinus out flow; 0.6 mg/kg i.v., imm.): +6.0% | Changes(%) of basal values, coronary sinus out flow (coronary sinus out flow; 2.0 mg/kg i.v., 1 min): -3.0% | Changes(%) of basal values, coronary sinus out flow (coronary sinus out flow; 2.0 mg/kg i.v., 5 min): +3.0% | Changes(%) of basal values, coronary sinus out flow (coronary sinus out flow; 2.0 mg/kg i.v., 10 min): +9.0% | Changes(%) of basal values, coronary sinus out flow (coronary sinus out flow; 2.0 mg/kg i.v., 20 min): +4.0% | Changes(%) of basal values, coronary sinus out flow (coronary sinus out flow; 2.0 mg/kg i.v., 30 min): 0% | Changes(%) of basal values, coronary sinus out flow (coronary sinus out flow; 2.0 mg/kg i.v., imm.): -13.0% | depressant effect on the heart (coronary blood flow): depressant effect on the heart | Changes (%) of basal values, aortic blood flow (aortic blood flow; 0.2 mg/kg i.v., 1 min): 0% | Changes (%) of basal values, aortic blood flow (aortic blood flow; 0.2 mg/kg i.v., 5 min): 0% | Changes (%) of basal values, aortic blood flow (aortic blood flow; 0.2 mg/kg i.v., 10 min): 0% | Changes (%) of basal values, aortic blood flow (aortic blood flow; 0.2 mg/kg i.v., 20 min): 0% | Changes (%) of basal values, aortic blood flow (aortic blood flow; 0.2 mg/kg i.v., 30 min): 0% | Changes (%) of basal values, aortic blood flow (aortic blood flow; 0.2 mg/kg i.v., imm.): 0% | Changes (%) of basal values, aortic blood flow (aortic blood flow; 0.6 mg/kg i.v., 1 min): +0.5% | Changes (%) of basal values, aortic blood flow (aortic blood flow; 0.6 mg/kg i.v., 5 min): 0% | Changes (%) of basal values, aortic blood flow (aortic blood flow; 0.6 mg/kg i.v., 10 min): -1.0% | Changes (%) of basal values, aortic blood flow (aortic blood flow; 0.6 mg/kg i.v., 20 min): -1.0% | Changes (%) of basal values, aortic blood flow (aortic blood flow; 0.6 mg/kg i.v., 30 min): 0% | Changes (%) of basal values, aortic blood flow (aortic blood flow; 0.6 mg/kg i.v., imm.): +1.5% | Changes (%) of basal values, aortic blood flow (aortic blood flow; 2.0 mg/kg i.v., 1 min): 0% | Changes (%) of basal values, aortic blood flow (aortic blood flow; 2.0 mg/kg i.v., 5 min): +11.0% | Changes (%) of basal values, aortic blood flow (aortic blood flow; 2.0 mg/kg i.v., 10 min): +23.0% | Changes (%) of basal values, aortic blood flow (aortic blood flow; 2.0 mg/kg i.v., 20 min): +5.0% | Changes (%) of basal values, aortic blood flow (aortic blood flow; 2.0 mg/kg i.v., 30 min): +5.0% | Changes (%) of basal values, aortic blood flow (aortic blood flow; 2.0 mg/kg i.v., imm.): -78.0%
